This passage reports IC50 results from patent US8163724B2, “Glucocorticosteroids, processes for their preparation, pharmaceutical compositions containing them and their use in therapy” (AstraZeneca AB, priority 2007, dated 2012).

In the assay the target is T1, recombinant human GR (Homo sapiens, UniProt P04150).
T1 construct: purchased Panvera/Invitrogen P2812 (kit P2893)
T1 sequence (P04150 1-777): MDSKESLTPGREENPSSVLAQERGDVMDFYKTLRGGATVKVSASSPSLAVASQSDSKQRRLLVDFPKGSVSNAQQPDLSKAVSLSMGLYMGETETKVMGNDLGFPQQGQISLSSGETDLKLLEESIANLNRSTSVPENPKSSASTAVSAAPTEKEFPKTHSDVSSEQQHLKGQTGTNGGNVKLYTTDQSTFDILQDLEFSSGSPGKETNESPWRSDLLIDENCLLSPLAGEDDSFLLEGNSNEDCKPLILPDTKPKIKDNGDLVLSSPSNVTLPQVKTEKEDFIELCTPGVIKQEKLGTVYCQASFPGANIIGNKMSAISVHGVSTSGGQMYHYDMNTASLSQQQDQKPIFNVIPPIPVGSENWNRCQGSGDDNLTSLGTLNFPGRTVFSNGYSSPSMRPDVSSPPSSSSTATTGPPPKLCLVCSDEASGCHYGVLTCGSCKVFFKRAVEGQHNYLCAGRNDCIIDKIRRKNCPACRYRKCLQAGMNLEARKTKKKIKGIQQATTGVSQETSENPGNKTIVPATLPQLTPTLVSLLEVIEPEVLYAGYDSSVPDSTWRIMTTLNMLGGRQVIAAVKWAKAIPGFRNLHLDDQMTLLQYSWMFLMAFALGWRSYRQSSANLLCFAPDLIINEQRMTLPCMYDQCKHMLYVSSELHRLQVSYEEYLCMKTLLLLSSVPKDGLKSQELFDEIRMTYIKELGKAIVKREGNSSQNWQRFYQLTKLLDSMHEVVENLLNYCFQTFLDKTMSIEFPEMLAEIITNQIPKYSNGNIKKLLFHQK
Nature of the assay: Human Glucocorticoid Receptor (GR) Assay (fluorescence polarization, Panvera/Invitrogen kit). It counts as binding. The conditions noted are these: fluorescence polarization; GS Red tracer; 2 hours at room temperature; 100% control 10 μM Dexamethasone; read-out: Inhibition of GR binding, IC50. Put shortly: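 Fluorescence polarization competition with recombinant GR and GS Red fluorescent ligand plus stabilizing peptide and DTT in potassium phosphate/sodium molybdate/EDTA buffer with DMSO. Incubated 2 hours at room temperature in the dark; 0% control DMSO, 100% control 10 μM dexamethasone.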

As to `CSC(=O)[C@@]1(OC(=O)[C@H]2CCCO2)CC[C@H]2[C@@H]3CCC4=Cc5c(cnn5-c5ccc(F)nc5)C[C@]4(C)[C@H]3[C@@H](O)C[C@@]21C` [Example 188, (1R,3aS,3bS,10aR,10bS,11S,12aS)-7-(6-Fluoropyridin-3-yl)-11-hydroxy-10a,12a-dimethyl-1-[(methylsulfanyl)carbonyl]-1,2,3,3a,3b,4,5,7,10,10a,10b,11,12,12a-tetradecahydrocyclopenta[5,6]naphtho[1,2]-indazol-1-yl (2R)-tetrahydrofuran-2-carboxylate], the IC50 was found to be 1.2 nM.
As to `C[C@]12Cc3cnn(-c4cccc(C(=O)N5CCOCC5)c4)c3C=C1CC[C@@H]1[C@@H]2[C@@H](O)C[C@@]2(C)[C@H]1CC[C@]2(OC(=O)c1ccco1)C(=O)SCF` [Example 100, (1R,3aS,3bS,10aR,10bS,11S,12aS)-1-{[(Fluoromethyl)thio]carbonyl}-11-hydroxy-10a,12a-dimethyl-7-[3-(morpholin-4-ylcarbonyl)phenyl]-1,2,3,3a,3b,4,5,7,10,10a,10b,11,12,12a-tetradecahydrocyclopenta[5,6]naphtho[1,2-f]indazol-1-yl furan-2-carboxylate], the IC50 worked out at 2.7 nM.
As for `C[C@]12Cc3cnn(-c4ccc(F)cc4)c3C=C1CC[C@H]1[C@@H]3CC[C@](OC(=O)C4CC4)(C(=O)SCF)[C@@]3(C)C[C@H](O)[C@@]12F` [Example 196, (1R,3aS,3bS,10aS,10bR,11S,12aS)-1-{[(Fluoromethyl)sulfanyl]carbonyl}-10b-fluoro-7-(4-fluorophenyl)-11-hydroxy-10a,12a-dimethyl-1,2,3,3a,3b,4,5,7,10,10a,10b,11,12,12a-tetradecahydrocyclopenta[5,6]naphtho[1,2-f]indazol-1-yl cyclopropanecarboxylate], the figure is 14 nM; as for `C[C@]12Cc3cnn(-c4ccc(F)cc4)c3C=C1CC[C@@H]1[C@@H]2[C@@H](O)C[C@@]2(C)[C@H]1CC[C@]2(OC(=O)c1ccno1)C(=O)SCC#N` [Example 59, (1R,3aS,3bS,10aR,10bS,11S,12aS)-1-{[(Cyanomethyl)thio]carbonyl}-7-(4-fluorophenyl)-11-hydroxy-10a,12a-dimethyl-1,2,3,3a,3b,4,5,7,10,10a,10b,11,12,12a-tetradecahydropcyclopenta[5,6]naphtho[1,2-f]indazol-1-yl isoxazole-5-carboxylate], 3.9 nM.
Take `CCC(=O)O[C@]1(C(=O)SCC#N)CC[C@H]2[C@@H]3CCC4=Cc5c(cnn5-c5ccc(F)c(C(=O)SCC#N)c5)C[C@]4(C)[C@H]3[C@@H](O)C[C@@]21C` [Example 174, (1R,3aS,3bS,10aR,10bS,11S,12aS)-1-{[(Cyanomethyl)sulfanyl]carbonyl}-7-(3-{[(cyanomethyl)sulfanyl]carbonyl}-4-fluorophenyl)-11-hydroxy-10a,12a-dimethyl-1,2,3,3a,3b,4,5,7,10,10a,10,12,12a-tetradecahydrocyclopenta[5,6]naphtho[1,2-f]indazol-1-yl propanoate]: the IC50 was 34 nM.
Regarding `CCC(=O)O[C@]1(C(=O)SCC(C)=O)CC[C@H]2[C@@H]3CCC4=Cc5c(cnn5-c5ccc(F)cc5)C[C@]4(C)[C@H]3[C@@H](O)C[C@@]21C` [Example 17, (1R,3aS,3bS,10aR,10bS,11S,12aS)-7-(4-Fluorophenyl)-11-hydroxy-10a,12a-dimethyl-1-{[(2-oxopropyl)thio]carbonyl}-1,2,3,3a,3b,4,5,7,10,10a,10b,11,12,12a-tetradecaphydrocyclopenta[5,6]naphtho[1,2-f]indazol-1-yl propanoate], the half-inhibitory concentration (IC50) worked out at 4.8 nM.
As for `Cc1ccoc1C(=O)O[C@]1(C(=O)SCC#N)CC[C@H]2[C@@H]3CCC4=Cc5c(cnn5-c5ccc(F)cc5)C[C@]4(C)[C@H]3[C@@H](O)C[C@@]21C` [Example 56, (1R,3aS,3bS,10aR,10bS,11S,12aS)-1-{[(Cyanomethyl)thio]carbonyl}-7-(4-fluorophenyl)-11-hydroxy-10a,12a-dimethyl-1,2,3,3a,3b,4,5,7,10,10a,10b,11,12,12a-tetradecahydropcyclopenta[5,6]naphtho[1,2-f]indazol-1-yl 3-methylfuran-2-carboxylate], the concentration for half-maximal inhibition (IC50) came out at 6.5 nM.
Regarding `CSCSC(=O)[C@@]1(OC(C)=O)CC[C@H]2[C@@H]3CCC4=Cc5c(cnn5-c5ccc(F)cc5)C[C@]4(C)[C@H]3[C@@H](O)C[C@@]21C` [Example 118, (1R,3aS,3bS,10aR,10bS,11S,12aS)-7-(4-Fluorophenyl)-11-hydroxy-10a,12a-dimethyl-1-({[(methylsulfanyl)methyl]sulfanyl}carbonyl)-1,2,3,3a,3b,4,5,7,10,10a,10b,11,12,12a-tetradecahydrocyclopenta[5,6]naphtho[1,2-f]indazol-1-yl acetate], the IC50 is 18 nM.
As for `C[C@]12Cc3cnn(-c4ccc(S(C)(=O)=O)cc4)c3C=C1CC[C@@H]1[C@@H]2[C@@H](O)C[C@@]2(C)[C@H]1CC[C@]2(OC(=O)c1ccco1)C(=O)SCC#N` [Example 106, (1R,3aS,3bS,10aR,10bS,11S,12aS)-1-{[(Cyanomethyl)sulfanyl]carbonyl}-11-hydroxy-10a,12a-dimethyl-7-[4-(methylsulfonyl)phenyl]-1,2,3,3a,3b,4,5,7,10,10a,10b,11,12,12a-tetradecahydrocyclopenta[5,6]naphtho[1,2-f]indazol-1-yl furan-2-carboxylate], the IC50 turned out to be 160 nM.
Take `C[C@]12Cc3cnn(-c4ccccn4)c3C=C1CC[C@@H]1[C@@H]2[C@@H](O)C[C@@]2(C)[C@H]1CC[C@]2(OC(=O)C1CC1)C(=O)OCC#N` [Example 143, Cyanomethyl(1R,3aS,3bS,10aR,10bS,11S,12aS)-1-[(cyclopropylcarbonyl)oxy]-11-hydroxy-10a,12a-dimethyl-7-pyridin-2-yl-1,2,3,3a,3b,4,5,7,10,11a,10b,11,12,12a-tetradecahydrocyclopenta[5,6]naphtho[1,2-f]indazole-1-carboxylate]: the IC50 is 1.5 nM.
Take `COCC(=O)O[C@]1(C(=O)SC)CC[C@H]2[C@@H]3CCC4=Cc5c(cnn5-c5ccc(F)nc5)C[C@]4(C)[C@H]3[C@@H](O)C[C@@]21C` [Example 157, (1R,3aS,3bS,10aR,10bS,11S,12aS)-7-(6-Fluoropyridin-3-yl)-11-hydroxy-10a,12a-dimethyl-1-[(methylsulfanyl)carbonyl]-1,2,3,3a,3b,4,5,7,10,10a,10b,11,12,12a-tetradecahydrocyclopenta[5,6]naphtho[1,2-f]indazol-1-yl Methoxyacetate]: the IC50 was 1.1 nM.
Consider `C[C@]12Cc3cnn(-c4ccc(F)cc4)c3C=C1CC[C@H]1[C@@H]3CC[C@](OC(=O)c4cocn4)(C(=O)SCC#N)[C@@]3(C)C[C@H](O)[C@@]12F` [Example 201, (1R,3aS,3bS,10aS,10bR,11S,12aS)-1-{[(Cyanomethyl)sulfanyl]-carbonyl}-10b-fluoro-7-(4-fluorophenyl)-11-hydroxy-10a,12a-dimethyl-1,2,3,3a,3b,4,5,7,10,10a,10b,11,12,12a-tetradecahydrocyclopenta[5,6]naphtho[1,2-f]indazol-1-yl 1,3-oxazole-4-carboxylate], for which the IC50 came to 5.3 nM.

As a reminder, the IC50 is the concentration needed to halve the response being measured.
